Source: patent publication US11584709B2, “Multitarget drug for treating diseases in mammals” (“PHARMENTERPRISES EURASIA” LIMITED LIABILITY COMPANY, priority 2017, dated 2023)

Tests used:
[1] = biological target: T1, tachykinin receptor type 1 (NK1R) (Homo sapiens, UniProt P25103); assay: Activity of tachykinin receptor type 1 (NK1R), intracellular calcium, U373 cells; type: cell-based; conditions: antagonist, [Sar9, Met(O2)11]-SP (1 nM)
T1 construct: endogenous in cells; host or cells: U373 cells
T1 sequence (P25103 whole entry): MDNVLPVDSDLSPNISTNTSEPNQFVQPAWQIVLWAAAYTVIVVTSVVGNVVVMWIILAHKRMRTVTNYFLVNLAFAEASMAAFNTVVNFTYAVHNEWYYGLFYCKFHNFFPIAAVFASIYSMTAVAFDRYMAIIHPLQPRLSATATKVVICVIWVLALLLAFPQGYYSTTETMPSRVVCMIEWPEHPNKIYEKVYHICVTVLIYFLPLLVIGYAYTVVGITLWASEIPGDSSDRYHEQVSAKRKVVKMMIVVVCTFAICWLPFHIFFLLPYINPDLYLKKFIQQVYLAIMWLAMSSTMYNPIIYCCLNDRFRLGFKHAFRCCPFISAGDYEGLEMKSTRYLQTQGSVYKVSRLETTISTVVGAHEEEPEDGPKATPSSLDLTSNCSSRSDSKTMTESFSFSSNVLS
Method: Compound 1 dissolved in DMSO to a concentration of 100 mM; then a stock solution was serially diluted with DMSO. The maximum starting concentration of the substance is 100 μM. The effect was determined at 5 concentrations of the tested compounds, each concentration was studied twice. U373 cells expressing NK1R were used in the experiment, said cells, after the preincubation with an [Sar9, Met(O2)11]-SP (1 nM) […], were incubated with Compound 1. The activity of receptors was determined according to the intracellular calcium concentration by the fluorescence spectroscopy (Glia. 1992; 6(2):89-95).

[2] = tested on: imiquimod-induced psoriasis on the back; assay: Mouse model of imiquimod-induced psoriasis on the back; type: in vivo; conditions: for The gain of the thickness of the back skin to the thickness before the start of the study: 0.3% ointment, M ± m, n = 10
Method: Psoriasis was simulated in female balb/c mice by applying Aldar cream (5% imiquimod) on a previously shaved skin back area of 3×4 cm daily 1 time per day for 15 days (J Immunol. 2009 May 1; 182(9):5836-45). Intact animals were applied with vaseline: 120 mg per the shaved back area.
The assessment of the development of pathology was performed on the 10th, 12th, 13th and 15th day before the next application of Aldar cream according to the index: the thickness of the skin fold on the back. The thickness of the skin fold on the back was measured with a Digimatic MK-25 micrometer (Mitutoyo, Japan).

model of Crohn's disease = assay: Mouse model of Crohn's disease (TNBS); type: in vivo, male balb/c mice
Method: The study was performed on male balb/c mice. Animals, which starved for 24 hours, were injected with 150 μl/mouse of TNBS solution in 50% ethanol into the rectal hole of the mouse to the depth of 4 cm using a 3.5 F catheter. Next, the mice were turned upside down and held for 60 seconds. 150 μl of the 50% ethanol solution was injected into the healthy control (intact animals). The study lasted 7 days. The development of pathology was assessed by the death of animals.

indomethacin colitis = assay: Model of colitis induced by indomethacin; type: in vivo, male Wistar rats; conditions: 100 mg/kg; day 4; M ± m, n = 10
Method: The study was performed on male Wistar rats, which were subcutaneously injected with an indomethacin solution in a dose of 9 mg/kg for two days running to induce colitis. The injection solution was prepared as follows: first, indomethacin was dissolved in 100% ethanol, then it was diluted in 5% NaHCO3 solution. On the 4th day after euthanasia, the stomach and intestine were removed from the animals in the CO2 chamber, then the caecum was excised, 10 cm from the ileum and large intestine was cut off, and 5 cm—from the caecum, to assess gross lesions (J Ethnopharmacol. 2004 February; 90(2-3): 195-204).

[3] = tested on: diarrhea induced by castor oil; assay: Mouse model of diarrhea induced by castor oil; type: in vivo, Balb/c mice
Method: Balb/c mice, which starved for 24 hours, were given castor oil intragastrically. Then the animals were encaged into individual cages with a bottom covered with white paper, and time before the onset of diarrhea was noted. The observation time is 4 hours (J Pharm Pharmacol. 2015 February; 67(2):244-54).

[4] = tested on: motility of the gastrointestinal tract; assay: Model of irritable bowel syndrome: motility of the gastrointestinal tract (activated carbon); type: in vivo, nonlinear male mice
Method: The effect on the motility of the gastrointestinal tract was studied on a model of irritable bowel syndrome in nonlinear male mice weighing 24-30 g. The animals were intragastrically injected with a solution of activated carbon (50 mg/ml, in a volume of 10 ml/kg) and the speed (in minutes) of the movement of activated coal through the intestines of animals. The compounds under study were intragastrically administered once 1 hour before the introduction of activated carbon. Drotaverine (6.7 mg/kg), Buscopan (3 mg/kg) and Trimedat (33 mg/kg) were used as reference drugs.

[5] = Pharmacokinetics in blood plasma after oral administration; type: in vivo; conditions: rats, 3 mg/kg, 24 hours sampling, HPLC-MS/MS, limit of quantitation 1 ng/ml
Method: To confirm low systemic availability of Compound 1, the study pharmacokinetics and bioavailability of Compound 1 after oral administration to rats in a dose of 3 mg/kg was conducted. Sampling of blood from animals was performed at specified time points for 24 hours after the drug administration. The content of Compound 1 in plasma samples was analyzed by HPLC-MS/MS, the limit of quantitation was 1 ng/ml.

## O=C(Cc1ccc(O)cc1)N[C@@H](Cc1ccccc1)C(=O)OCc1ccccc1 [Compound 1, benzyl (2S)-2-[2-(4-hydroxyphenyl)acetamido]-3-phenylpropanoate]
[1]
  IC50: 4.1 µM
[2]; day 10
  The gain of the thickness of the back skin to the thickness before the start of the study: 23.1%
[2]; day 12
  The gain of the thickness of the back skin to the thickness before the start of the study: 19.9%
[2]; day 13
  The gain of the thickness of the back skin to the thickness before the start of the study: 20.5%
[2]; day 15
  The gain of the thickness of the back skin to the thickness before the start of the study: 22.4%
[2]; summary of table 2
  reduction of the gain of the thickness of the skin fold of the affected skin area: 2 times
Model of Crohn's disease; 50 mg/kg, 1 time per day, TNBS, 7 days, 10 animals
  The portion of dead animals: 30%
Model of Crohn's disease; summary of Table 4
  decrease of the death of animals: more than 2 times
Indomethacin colitis
  Macroscopic assessment of the lesion, Caecum: 0.4 ± 0.2 points
  Macroscopic assessment of the lesion, Ileum: 0.6 ± 0.3& points
  Macroscopic assessment of the lesion, Large intestine: 0.2 ± 0.1& points
  Macroscopic assessment of the lesion, Overall assessment: 1.2 ± 0.4*& points
[3]; 50 mg/kg, M ± m, n = 10, observation 4 hours
  The time of onset of diarrhea: 42.00 ± 3.43& min
[3]; summary of Table 6
  increase of the time to the onset of diarrhea: 2 times
[4]; 0.5 mg/kg once intragastrically 1 hour before activated carbon
  The evacuation speed of activated carbon: 89.45 ± 1.9 min
[4]; 1.5 mg/kg once intragastrically 1 hour before activated carbon
  The evacuation speed of activated carbon: 104.25 ± 5.49 min
[4]; 5 mg/kg once intragastrically 1 hour before activated carbon
  The evacuation speed of activated carbon: 107.67 ± 3.07 min
[4]; 10 mg/kg once intragastrically 1 hour before activated carbon
  The evacuation speed of activated carbon: 126.6 ± 3.66 min
[4]; 15 mg/kg once intragastrically 1 hour before activated carbon
  The evacuation speed of activated carbon: 123.13 ± 5.27 min
[4]; 50 mg/kg once intragastrically 1 hour before activated carbon
  The evacuation speed of activated carbon: 129.13 ± 3.19 min
[4]; 150 mg/kg once intragastrically 1 hour before activated carbon
  The evacuation speed of activated carbon: 135.63 ± 2.87 min
[4]; summary of table 7
  increase of the evacuation time of activated carbon: 2 times
[5]
  content in blood plasma after oral administration: not detected
